Source: PMC5017989, “Anti-inflammatory and acetylcholinesterase activity of extract, fractions and five compounds isolated from the leaves and twigs of Artemisia annua growing in Cameroon” (SpringerPlus, 2016)
Read-outs that look alike come from different tables or passages of the source. Marks after values point to notes of the source that are not given here.

Legend:
[1] = test system: NO production in LPS-activated RAW 264.7 macrophages; assay: Nitric oxide inhibitory activity in LPS-activated RAW 264.7 macrophages (Griess reagent); assay type: cell-based, murine; conditions: for inhibition at 0.5 µg/mL / inhibition at 2 µg/mL / inhibition at 5 µg/mL / inhibition at 20 µg/mL: Mus musculus, relative to LPS control; for inhibition at 0.5 µg/mL: RAW264.7, sample at 0.5 µg/mL; for inhibition at 2 µg/mL: RAW264.7, sample at 2 µg/mL; for inhibition at 5 µg/mL: RAW264.7, sample at 5 µg/mL; for inhibition at 20 µg/mL: RAW264.7, sample at 20 µg/mL; for NO: LPS-activated RAW 264.7
Method: Compounds were assayed for their potential to inhibit the NO production in macrophage cells.
(§1) The RAW 264.7 macrophages cell line was purchased from the American Type Culture Collection (ATCC TIB-71, Rockville, MD, USA) and cultured in a plastic culture flask in DMEM containing L-glutamine supplemented with 10 % FCS and 1 % PSF solution at 37 °C with 5 % CO2. Cells were seeded (10^4 per well) in 96 well-microtitre plate and activated LPS alone (control) or with samples at different concentrations. Quercetin was used as a positive control (Mu et al. [2001]).
The amount of nitric oxide released was determined by the Griess reagent as reported previously (Dzoyem et al. [2015]).

[2] = in vitro; assay type: cell-based, murine; conditions: mouse, MTT, cells with LPS only = 100 %, read-out: % Cell viability
Method: as §1
(§2) The number of viable cells was determined as previously described by Mosmann ([1983]) on the macrophage cells with few modifications. Briefly, the cells were topped up with 200 µL DMEM after removal of media. 30 µL of 15 mg/mL MTT were added to each well and cells were incubated at 37 °C with 5 % CO2. The medium was aspirated after 2 h, and the formazan salt formed was dissolved using DMSO. The absorbance was read at 570 nm on a BioTek Synergy microplate reader. Cell viability percentage was then calculated with reference to the control (cells with LPS only considered as 100 % viable).

[3] = test system: RAW 264.7 macrophages; assay: in vitro; assay type: cell-based, murine; conditions: sample at 20 µg/mL; MTT; cells with LPS only = 100 %
Method: as §1, §2

[4] = molecular target: acetylcholinesterase (Electrophorus electricus, UniProt O42275); assay: biochemical
acetylcholinesterase, sequence (O42275 24-633): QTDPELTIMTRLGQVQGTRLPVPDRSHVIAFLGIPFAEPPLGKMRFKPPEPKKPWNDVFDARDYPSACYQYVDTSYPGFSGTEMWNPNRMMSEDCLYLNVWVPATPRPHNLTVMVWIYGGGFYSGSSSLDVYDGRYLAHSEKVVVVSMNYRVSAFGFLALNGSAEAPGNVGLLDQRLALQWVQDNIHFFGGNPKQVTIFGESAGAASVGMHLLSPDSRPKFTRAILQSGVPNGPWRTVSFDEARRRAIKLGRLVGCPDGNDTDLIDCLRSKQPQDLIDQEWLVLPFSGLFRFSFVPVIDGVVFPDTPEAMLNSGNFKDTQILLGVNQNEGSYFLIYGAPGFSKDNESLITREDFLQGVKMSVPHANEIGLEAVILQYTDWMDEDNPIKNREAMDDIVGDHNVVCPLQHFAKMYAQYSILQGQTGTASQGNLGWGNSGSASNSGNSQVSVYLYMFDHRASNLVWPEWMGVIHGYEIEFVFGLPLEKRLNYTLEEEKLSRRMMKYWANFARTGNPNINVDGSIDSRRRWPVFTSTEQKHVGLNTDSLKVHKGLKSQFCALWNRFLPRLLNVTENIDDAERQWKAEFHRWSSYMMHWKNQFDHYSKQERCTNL

Row | Structure (SMILES) | inhibition at 0.5 µg/mL [1] | inhibition at 2 µg/mL [1] | inhibition at 5 µg/mL [1] | inhibition at 20 µg/mL [1] | NO ([1]; sample at 0.5 µg/mL) | NO ([1]; sample at 2 µg/mL) | NO ([1]; sample at 5 µg/mL) | NO ([1]; sample at 20 µg/mL) | viability ([2]; sample at 0.5 µg/mL) | viability ([2]; sample at 2 µg/mL) | viability ([2]; sample at 5 µg/mL) | viability ([2]; sample at 20 µg/mL) | % Cell viability [3] | inhibition at 100 µg/mL [4] | % Inhibition (acetylcholinesterase) ([4]; single concentration of 100 µg/mL (compounds and galantamine))
1 | C[C@@H]1CC[C@H]2[C@@H](C)C(=O)O[C@@H]3O[C@@]4(C)CC[C@@H]1[C@]32OO4 [Compound 1, artemisinin] | 56.3 ± 14.4% | 83.1 ± 9.72% | 89.1 ± 7.05% | 99.2 ± 2.16% | 3.36 ± 1.10 µM | 1.30 ± 0.75 µM | 0.84 ± 0.54 µM | 0.07 ± 0.17 µM | 110 ± 6.22% | 104 ± 9.66% | 91.3 ± 2.2% | 80.9 ± 1.71% | without obvious cytotoxic effect | 71.7 ± 7.9% | 
2 | COc1cc2ccc(=O)oc2cc1O [Compound 2, scopoletin] | 65.5 ± 4.41% | 72 ± 4.22% | 77.7 ± 2.09% | 98.46 ± 0.79% | 2.65 ± 0.34 µM | 2.15 ± 0.32 µM | 1.71 ± 0.16 µM | 0.12 ± 0.06 µM | 80.3 ± 8.56% | 69.9 ± 9.23% | 88.5 ± 1.19% | 81.6 ± 4.35% | without obvious cytotoxic effect | 56.3 ± 4.92% | 
3 | COc1cc(-c2oc3cc(OC)c(OC)c(O)c3c(=O)c2OC)ccc1O [Compound 3, chrysosplenetin] | 37.7 ± 2.88% | 81.7 ± 1.04% | 98.6 ± 1.67% | > 100% | 4.79 ± 0.22 µM | 1.41 ± 0.08 µM | 0.10 ± 0.13 µM | -0.32 ± 0.02 µM | 95.6 ± 4.88% | 67.4 ± 3.74% | 28.5 ± 2.18% | 15.9 ± 2.37% |  | 80 ± 9.67% | 
4 | COc1ccc(-c2oc3cc(OC)c(OC)c(O)c3c(=O)c2O)cc1O [Compound 4, eupatin] | 83.4 ± 1.96% | 97.9 ± 1.08% | 97.8 ± 6.28% | > 100% | 1.27 ± 0.15 µM | 0.16 ± 0.08 µM | 0.17 ± 0.48 µM | -0.20 ± 0.02 µM | 79.3 ± 5.34% | 48.5 ± 3.88% | 17.6 ± 1.66% | 7.49 ± 0.62% |  |  | 58.22 ± 2.73^b %
5 | O=c1c(O)c(-c2ccc(O)c(O)c2)oc2cc(O)cc(O)c12 [Quercetin, reference compound] | 34.9 ± 2.76% | 43 ± 3.89% | 85.7 ± 2.34% | 103 ± 1.08% | 5.01 ± 1.67 µM | 4.38 ± 0.30 µM | 1.10 ± 0.18 µM |  | 105 ± 6.13% | 98.3 ± 5.17% | 76.2 ± 2.06% | 23.1 ± 5.37% |  |  | 
